Data on one molecule can be found in publication PMC6223132 (Journal of controlled release : official journal of the …, 2018).

Series [1] deals with aerosolized F. novicida U112. Type of series: in vivo, C57Bl/6 mice. Particulars: n=8.
For series [2], the system named is Francisella tularensis. Particulars: cited from earlier work.
Series [3] in a line: In vivo pharmacokinetics and biodistribution of drugamer-released ciprofloxacin. Particulars: single dose 20 mg/kg intratracheal, over 2 h.

≈ marks a conversion by molar mass, not a printed value.

With `O=C(O)c1cn(C2CC2)c2cc(N3CCNCC3)c(F)cc2c1=O` [free ciprofloxacin, ciprofloxacin], the survival rate in series [1] is on record as 0%. The MIC in series [2] is 0.03 µg/mL (≈ 0.0905 µM). The “elimination from the lungs” value in series [3] is recorded as “rapid elimination”.
